Assay results from US20190247376A1, “NICOTINIC ACETYLCHOLINE RECEPTOR AGONIST ATTENUATES ILC2-DEPENDENT AIRWAY HYPERREACTIVITY” (University of Southern California, priority 2016, published 2019).

Columns and labels:
[1] = target: α7 subtype of nAChR (Homo sapiens, UniProt P36544); settings: cited from earlier work
[2] = test system: Rag2 deficient mice; experiment: IL-33-induced ILC2-mediated AHR and airway inflammation in Rag2-deficient mice; format: in vivo, mouse
Procedure: FIGS. 3A-3H: α7nAChR agonist treatment ameliorates ILC2s mediated AHR. (FIG. 3A) Rag2-deficient mice were intranasally challenged with recombinant mouse IL-33 or PBS and also received α7nAChR agonist (125 μg) or PBS on days 1-3 according to scheme 3A. Measurement of lung function and analyses of bronchoalveolar lavage fluid (BALF) and lung histology followed on day 4. (FIGS. 3B-3C) Lung resistance and dynamic compliance. (FIG. 3D) Total number of cells and eosinophils in BALF. (FIG. 3E) Hematoxylin and eosin-stained lung sections (×200). Scale bars represent 50 μm. (FIG. 3F) Quantification of lung histopathology shown as number of inflammatory cells per 250 μm^2 and thickness of airway epithelium (μm). (FIG. 3G) Total number and frequency of lung ILC2s. (FIG. 3H) Percentage of IL-5^+ and IL-13^+ lung ILC2s determined by flow cytometry. Data are representative of at least four independent experiments and are presented as means±SEM (n=8; Student's test *, p<0.05; **, p<0.01; ***, p<0.001).
As reported previously^6-9,11,12,34,35, the IL-5 and IL-13 cytokines produced by activated ILC2s are essential for eosinophilic inflammation and AHR development. Applicants investigated whether the attenuated ILC2 function by α7nAChR stimulation in vitro could result in inhibition of ILC2-mediated AHR and allergic inflammation. Rag2 deficient mice (devoid of T and B cells) were given intranasal (i.n.) rm-IL-33, with or without α7nAChR agonist for three consecutive days (FIG. 3A). As IL-33 administration specifically induces ILC2s, thereby causing AHR, with this model Applicants can readily explore the effect of an α7nAChR agonist in ILC2-mediated AHR. One day after the last challenge, lung function was evaluated by direct measurements of lung resistance (RL) and dynamic compliance (Cdyn), as described in the materials and methods section. […] These findings concur with the reduction of AHR and eosinophil counts in BALF (FIGS. 3B-3D). Thus, α7nAChR agonist represses IL-5 and IL-13 production, eosinophil recruitment, and ILC2-dependent AHR.
Mice were intranasally (i.n.) administered carrier-free recombinant mouse IL-33 (BioLegend, San Diego Calif., 0.5 µg per mouse in 50 µL) with or without […] of α7nAChR agonist (kindly provided by Lin Chen) on three consecutive days. Mice were intranasally (i.n.) administered carrier-free recombinant mouse IL-25 (BioLegend, San Diego Calif., 5 µg per mouse in 50 µL) with or without […] of α7nAChR agonist on three consecutive days. For Alternaria alternata experiments, mice were i.n. administered Alternaria alternata (Greer Labs, Lenoir, N.C., 100 μg per mouse in 50 μL) with or without 125 µg α7nAChR agonist for four consecutive days. One day after the last challenge, mice were anesthetized using i.p. injection of ketamine (10 mg mL^−1) and xylazine (1 mg mL^−1). Measurements of airway resistance and dynamic compliance were conducted with the Fine Pointe RC System (Buxco Research Systems, Wilmington, N.C.), in which mice were mechanically ventilated using a modified version as previously described^36,67. Mice were sequentially challenged with aerosolized PBS (baseline), followed by increasing doses of methacholine. Maximum lung resistance (RL) and minimum compliance (Cdyn) values were recorded during a three-minute period after each methacholine challenge.
After measurements of AHR, the trachea was canulated and the lungs lavaged three times with 1 mL ice cold PBS to collect BALF cells as previously described^68. […]

[3] = i.n. rm-IL-33, agonist 125 μg days 1-3, day 4
[4] = i.n. rm-IL-33, agonist 125 μg days 1-3, measured day 4
[5] = i.n. rm-IL-33, agonist 125 μg days 1-3, vs untreated mice

Chain of α7 subtype of nAChR (P36544 23-502): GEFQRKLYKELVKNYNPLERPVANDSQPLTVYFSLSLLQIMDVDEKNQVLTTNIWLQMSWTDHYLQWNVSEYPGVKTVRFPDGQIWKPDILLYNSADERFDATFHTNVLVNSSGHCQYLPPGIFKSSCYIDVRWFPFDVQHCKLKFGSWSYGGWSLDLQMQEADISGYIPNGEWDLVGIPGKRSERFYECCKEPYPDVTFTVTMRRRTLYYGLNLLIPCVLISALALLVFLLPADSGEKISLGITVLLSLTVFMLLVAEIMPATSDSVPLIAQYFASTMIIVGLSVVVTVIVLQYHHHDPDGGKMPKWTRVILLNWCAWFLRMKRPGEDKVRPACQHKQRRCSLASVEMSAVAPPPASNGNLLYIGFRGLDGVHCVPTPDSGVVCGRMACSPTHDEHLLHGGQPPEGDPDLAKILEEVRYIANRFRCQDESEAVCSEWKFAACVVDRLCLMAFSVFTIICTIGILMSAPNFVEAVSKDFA

COc1ccc(/C=C2\CCCN=C2c2cccnc2)c(OC)c1 [GTS-21, 3-[(3E)-3-[(2,4-dimethoxyphenyl)methylidene]-5,6-dihydro-4H-pyridin-2-yl]pyridine]
binding to the α7 subtype [1]: binds
absolute number of lung ILC2s [2, 3]: significantly suppressed
airway wall thickness (lung histology) [2, 3]: prevented
eosinophilic infiltration in BALF [2, 3]: decreased
frequency of lung ILC2s [2, 3]: significantly suppressed
infiltrated cells (lung histology) [2, 3]: prevented
total cell counts (TCC) in BALF [2, 3]: decreased
dynamic compliance (Cdyn) [2, 4]: significantly reduced
lung resistance (RL) [2, 4]: significantly reduced
IL-5 producing lung ILC2s (intracellular cytokine assay) [2, 5]: significantly decreased
IL-13 producing lung ILC2s (intracellular cytokine assay) [2, 5]: significantly decreased
